Assay results published in patent US20090227632A1, “PHARMACEUTICAL COMPOSITION COMPRISING, IN COMBINATION, SAREDUTANT AND A SELECTIVE SEROTONIN REUPTAKE INHIBITOR OR A SEROTONIN/NOREPINEPHRINE REUPTAKE INHIBITOR” (priority 2006, published 2009).

Tested on: rat
Experiment: DRL-72 s (Differential Reinforcement of Low-rate-72 seconds) in-vivo rat test
Conditions: for % reinforced presses/total number of presses: n = 8 rats, test duration 1 hour, mean±SEM, solvent control 3.07 ± 0.48%; for minimum active dose in the DRL-72 s test: compound alone, intraperitoneally, rat
From the text: The in-vivo rat test DRL-72 s (Differential Reinforcement of Low-rate-72 seconds) is used according to the technique described by C. Louis et al., Neuropsychopharmacology, 2006, 1-8.
Effects compared with regard to the percentage of rewards obtained (reinforced presses) with respect to the total number of presses by the rat after intraperitoneal administration of the compound A alone, of the compound B alone and of the compound A+compound B combination versus the control (solvent alone).
Beforehand, the minimum active doses of the compound A alone and of the compound B alone in the DRL-72 s test were determined, namely: • compound A: 10 mg/kg intraperitoneally; • compound B: 5 mg/kg intraperitoneally.
The compound A alone at the dose of 3 mg/kg and the compound B alone at the dose of 2.5 mg/kg were dissolved in a 0.9% (weight/volume) aqueous sodium chloride solution comprising 0.1% (v/v) Tween 80® and administered intraperitoneally at a final volume of 1 ml/kg.
The combination was administered intraperitoneally by two simultaneous administrations of the compound A (3 mg/kg) and then of the compound B (2.5 mg/kg).
The doses of the compounds are expressed in the free base form.
For the requirements of the test, the effect of the compound A alone, the effect of the compound B alone and the effect of the compound A+compound B combination, compared with the effect of the solvent (control), are measured for each animal.
Each rat (n=8) thus receives four injections spread out over time, namely the solvent (control), the compound A alone, the compound B alone and the compound A+compound B combination.
The results obtained are collated in Table I and are expressed as a percentage of rewards obtained with respect to the total number of presses over the duration of the test (1 hour), in the mean±SEM (standard error of the mean) form.

CNCCC(Oc1ccc(C(F)(F)F)cc1)c1ccccc1 (racemic) [Compound B, (±)-N-methyl-3-phenyl-3-[4-(trifluoromethyl)phenoxy]propan-1-amine]
percentage number of rewards obtained with respect to the control (in words) (compound B alone 2.5 mg/kg i.p.): does not modify
% reinforced presses/total number of presses (compound B alone 2.5 mg/kg intraperitoneally): 3.82 ± 0.76%
minimum active dose in the DRL-72 s test: 5 mg/kg

CC(=O)NC1(c2ccccc2)CCN(CC[C@H](CN(C)C(=O)c2ccccc2)c2ccc(Cl)c(Cl)c2)CC1 [Compound A, (S)-(−)-N-[4-(4-Acetamido-4-phenylpiperidin-1-yl)-2-(3,4-dichlorophenyl)butyl]-N-methylbenzamide]
percentage number of rewards obtained with respect to the control (in words) (compound A alone 3 mg/kg i.p., increase not statistically significant): only slightly modifies
% reinforced presses/total number of presses (compound A alone 3 mg/kg intraperitoneally): 6.41 ± 1.73%
minimum active dose in the DRL-72 s test: 10 mg/kg
